Broadly, the IC50 is the concentration that inhibits the measured activity by half.

One test addresses AKT (Homo sapiens, UniProt P31749). Nature of the test: RBC HotSpot kinase assay (33P-ATP, P81 filter-binding), AKT. The note with it: read-out: AKT IC50. Format: biochemical. An outline of the steps:
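Hepes pH 7.5/MgCl2/EGTA/Brij35/BSA/Na3VO4/DTT buffer, cofactors per kinase; cpd acoustically dispensed, 20 min preinc RT; start w/ 33P-ATP, 2 h RT; P81 filter readout; 10-pt singlet IC50.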

Test [1] addresses T1, AKT Kinase-NanoLuc fusion in HEK-293 cells (Homo sapiens, UniProt P31749).
T1 construct: host or cells: HEK-293
Nature of the test: NanoBRET target engagement assay in transfected HEK-293 cells, AKT. The test is classed as cell-based. The note with it: read-out: AKT (Cellular) IC50. A digest of the protocol: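 HEK-293 cells transiently transfected with kinase-NanoLuc fusion plasmid for 22-24 h, then incubated with compound and NanoBRET tracer for 1 hour at 37° C. After substrate plus extracellular NanoLuc inhibitor addition, 460 and 600 nm emissions read; no-tracer-corrected BRET ratio used to derive IC50 values.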
(In general: BRET reads energy transfer from a luciferase to a nearby fluorophore.)

Where [2] appears, read: Table 32, biochemical kinase assay.
The mark [3] stands for this setting: Table 32, NanoBRET, HEK-293 cells.

Each structure is given as a SMILES string. Like-named read-outs stand apart in the source and are kept apart here. Bounds are passed on as bounds.

T1 sequence (P31749 whole entry, the tested form may be a part): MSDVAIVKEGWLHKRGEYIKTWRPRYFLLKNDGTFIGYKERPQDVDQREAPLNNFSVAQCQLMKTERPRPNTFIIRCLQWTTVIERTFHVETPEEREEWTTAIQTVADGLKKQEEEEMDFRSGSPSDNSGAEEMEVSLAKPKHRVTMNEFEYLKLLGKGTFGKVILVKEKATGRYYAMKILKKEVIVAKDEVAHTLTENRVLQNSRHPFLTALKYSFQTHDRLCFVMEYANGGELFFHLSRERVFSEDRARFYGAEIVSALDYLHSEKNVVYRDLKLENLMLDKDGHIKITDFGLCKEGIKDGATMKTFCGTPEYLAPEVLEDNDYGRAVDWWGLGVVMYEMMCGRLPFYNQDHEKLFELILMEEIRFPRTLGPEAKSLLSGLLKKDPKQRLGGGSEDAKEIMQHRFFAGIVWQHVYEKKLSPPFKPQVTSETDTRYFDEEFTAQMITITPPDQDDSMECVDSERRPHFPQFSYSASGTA
AKT, sequence (P31749 whole entry): as the sequence (P31749 whole entry, the tested form may be a part) above

Turning to `NCC(O)(c1ccc(Cl)cc1)c1ccc(-c2ccnc3[nH]cc(Br)c23)nc1` (stereo not shown) [Compound 1011, 2-amino-1-(6-(3-bromo-1H-pyrrolo[2,3-b]pyridin-4-yl)pyridin-3-yl)-1-(4-chlorophenyl)ethan-1-ol], the results for the IC50 (on AKT (setting [2]); in test [1] (setting [3])) were 1 nM and 0.0763 µM, respectively.

Consider `NCC(=O)NCC(O)(c1ccc(Cl)cc1)c1ccc(-c2ccnc3[nH]cc(Cl)c23)cc1` (stereo not shown) [Compound 1021, 2-amino-N-(2-(4-(3-chloro-1H-pyrrolo[2,3-b]pyridin-4-yl)phenyl)-2-(4-chlorophenyl)-2-hydroxyethyl) acetamide], for which the IC50 at AKT (setting [2]) is less than 0.5 nM; in test [1] (setting [3]) it was 0.012 µM.

`Cc1cc(-c2ccnc3[nH]cc(C#N)c23)cc(F)c1[C@@]1(O)[C@H](C)CN(C2CCS(=O)(=O)CC2)C[C@@H]1C` [Compound 2002, 4-(4-((3S,4s,5R)-1-(1,1-dioxidotetrahydro-2H-thiopyran-4-yl)-4-hydroxy-3,5-dimethylpiperidin-4-yl)-3-fluoro-5-methylphenyl)-1H-pyrrolo[2,3-b]pyridine-3-carbonitrile]: the IC50 on AKT (biochemical kinase inhibition) was determined as 188 nM; in test [1] (cellular), 57.9 µM.

As for `Cc1cc(-c2ccnc3[nH]cc(C#N)c23)cc(F)c1[C@@]1(O)[C@H](C)CN(C(=O)CN)C[C@@H]1C` [Compound 2004, 4-(3-fluoro-4-((3S,4s,5R)-1-glycyl-4-hydroxy-3,5-dimethylpiperidin-4-yl)-5-methylphenyl)-1H-pyrrolo[2,3-b]pyridine-3-carbonitrile], the IC50 came out at 118 nM at AKT (biochemical kinase inhibition) and 51.7 µM in test [1] (cellular).

Regarding `Cc1cc(-c2ccnc3[nH]cc(C#N)c23)ccc1[C@@]1(O)[C@H](C)CN(C(=O)CN)C[C@@H]1C` [Compound 2005, 4-(4-((3S,4s,5R)-1-glycyl-4-hydroxy-3,5-dimethylpiperidin-4-yl)-3-methylphenyl)-1H-pyrrolo[2,3-b]pyridine-3-carbonitrile], the IC50 at AKT (biochemical kinase inhibition) came out at 22 nM; in test [1] (cellular) it was 56.8 µM.

For `Cc1cc(-c2ccnc3[nH]cc(C#N)c23)cc(F)c1[C@@]1(O)[C@H](C)CN(C(=O)[C@H](N)CO)C[C@@H]1C` [Compound 2007, 4-(4-((3S,4S,5R)-1-(D-seryl)-4-hydroxy-3,5-dimethylpiperidin-4-yl)-3-fluoro-5-methylphenyl)-1H-pyrrolo[2,3-b]pyridine-3-carbonitrile], the IC50 was 159 nM on AKT (biochemical kinase inhibition) and more than 50 µM in test [1] (cellular).

`Cc1cc(-c2ccnc3[nH]cc(C#N)c23)cc(F)c1[C@@]1(O)[C@H](C)CN(C(=O)[C@](C)(N)CO)C[C@@H]1C` [Compound 2008, 4-(4-((3S,4s,5R)-1-(2-amino-3-hydroxy-2-methylpropanoyl)-4-hydroxy-3,5-dimethylpiperidin-4-yl)-3-fluoro-5-methylphenyl)-1H-pyrrolo[2,3-b]pyridine-3-carbonitrile]: the figures for the IC50 (at AKT (biochemical kinase inhibition); in test [1] (cellular)) were 262 nM and more than 50 µM, respectively.

With `Cc1cc(-c2ccnc3[nH]cc(C#N)c23)cc(F)c1[C@@]1(O)[C@H](C)CN(C(=O)[C@H](C)N)C[C@@H]1C` [Compound 2011, 4-(4-((3S,4R,5R)-1-(L-alanyl)-4-hydroxy-3,5-dimethylpiperidin-4-yl)-3-fluoro-5-methylphenyl)-1H-pyrrolo[2,3-b]pyridine-3-carbonitrile], the IC50 was 1030 nM at AKT (biochemical kinase inhibition) and more than 50 µM in test [1] (cellular).

With `CNCC(=O)N1C[C@@H](C)[C@](O)(c2c(C)cc(-c3ccnc4[nH]cc(C#N)c34)cc2F)[C@@H](C)C1` [Compound 2012, 4-(3-fluoro-4-((3S,4s,5R)-4-hydroxy-3,5-dimethyl-1-(methylglycyl)piperidin-4-yl)-5-methylphenyl)-1H-pyrrolo[2,3-b]pyridine-3-carbonitrile], the IC50 was 349 nM at AKT (biochemical kinase inhibition) and more than 50 µM in test [1] (cellular).

For the molecule `Cc1cc(-c2ccnc3[nH]cc(C#N)c23)cc(F)c1[C@@]1(O)[C@H](C)CN(C(=O)CNCC(F)(F)F)C[C@@H]1C` [Compound 2014, 4-(3-fluoro-4-((3S,4s,5R)-4-hydroxy-3,5-dimethyl-1-((2,2,2-trifluoroethyl)glycyl)piperidin-4-yl)-5-methylphenyl)-1H-pyrrolo[2,3-b]pyridine-3-carbonitrile], the IC50 on AKT (biochemical kinase inhibition) was 3010 nM; in test [1] (cellular) it was more than 50 µM.

As for `Cc1cc(-c2ccnc3[nH]cc(C#N)c23)cc(F)c1[C@@]1(O)[C@H](C)CN(C(=O)[C@@H](C)N)C[C@@H]1C` [Compound 2015, 4-(4-((3S,4S,5R)-1-(D-alanyl)-4-hydroxy-3,5-dimethylpiperidin-4-yl)-3-fluoro-5-methylphenyl)-1H-pyrrolo[2,3-b]pyridine-3-carbonitrile], the figures for the IC50 (on AKT (biochemical kinase inhibition); in test [1] (cellular)) were 236 nM and more than 50 µM, respectively.

In the case of `Cc1cc(-c2ccnc3[nH]cc(C#N)c23)cc(F)c1[C@@]1(O)[C@H](C)CN(C(=O)C(N)C(F)(F)F)C[C@@H]1C` (stereo partly drawn) [Compound 2017, 4-(4-((3S,4s,5R)-1-(2-amino-3,3,3-trifluoropropanoyl)-4-hydroxy-3,5-dimethylpiperidin-4-yl)-3-fluoro-5-methylphenyl)-1H-pyrrolo[2,3-b]pyridine-3-carbonitrile], the IC50 on AKT (biochemical kinase inhibition) was 2050 nM; in test [1] (cellular) it was more than 50 µM.

On to `Cc1cc(-c2ccnc3[nH]cc(C#N)c23)cc(F)c1[C@@]1(O)[C@H](C)CN(C(=O)[C@H](CO)N(C)C)C[C@@H]1C` [Compound 2023, 4-(4-((3S,4R,5R)-1-(dimethyl-L-seryl)-4-hydroxy-3,5-dimethylpiperidin-4-yl)-3-fluoro-5-methylphenyl)-1H-pyrrolo[2,3-b]pyridine-3-carbonitrile], for which the values for the IC50 (at AKT (biochemical kinase inhibition); in test [1] (cellular)) were 388 nM and more than 50 µM, respectively.

For `Cc1cc(-c2ccnc3[nH]cc(C#N)c23)cc(F)c1[C@@]1(O)[C@H](C)CNC[C@@H]1C` [Compound 2024, 4-(3-fluoro-4-((3S,4s,5R)-4-hydroxy-3,5-dimethylpiperidin-4-yl)-5-methylphenyl)-1H-pyrrolo[2,3-b]pyridine-3-carbonitrile], the IC50 is 334 nM on AKT (biochemical kinase inhibition) and more than 50 µM in test [1] (cellular).

The record behind these values is patent publication US20250361230A1, “LATS Inhibitors and Uses Thereof” (The USA, as Represented by the Secretary, Dept. of Heath …, priority 2022, published 2025).
